From patent US11213512B2, “Bis-amino acid based compound and use thereof” (THE CURATORS OF THE UNIVERSITY OF MISSOURI, priority 2016, dated 2022)

Assays:
HEK-293 cells = assay: Mammalian cell permeability and vitality, confocal microscopy (propidium iodide / fluorescein diacetate); type: cell-based, human; settings: 2 hours
Protocol: To test the permeability of HEK-293 cells, the cells were cultured in growth medium as described above. HEK-293 (90% confluent) were then seeded in a 96-well plate to get 30,000 cells/well. After 24 hours of incubation at 37° C. and 5% CO2, the spent media was replaced with media (DMEM and 10% FBS) containing compound 2 at either 20 μM or 80 μM. […] Triton X-100 at 0.1%—by volume (1670 μM) and DMSO 0.5% (v/v) were also used as controls. After 2 hours of incubation, spent media was replaced with PBS containing propidium iodide (30 μM) and fluorescein diacetate (60 μM) and incubated at 37° C. and 5% CO2. After 2 hour of incubation, the spend media was replaced with fresh PBS and the cells were observed under Zeiss LSM 700 confocal microscope. The images were reported without any alterations. The gain and the intensity in all the images were kept constant.
A compound that inhibits bacterial growth and penetrates into the microbe's cytosol may also penetrate into mammalian cells. A similar microscopic study was conducted with the human embryonic kidney (HEK-293) cell line. In this case, only compound 2 was studied. […] The microscopic study was therefore conducted at 20 μM, a value well below any inhibitory concentration, and at 80 μM, a concentration above all three MIC values. The 80 μM concentration was used to confirm the […] of 2 and to establish the lack of serum inhibition.

[1] = system: Staphylcoccus aureus 1199B; assay: Checkerboard combination with norfloxacin or ethidium bromide; type: cell-based, Staphylococcus aureus; settings: compound at ½ MIC or 2 μM; additive not stated
Protocol: Two different strains of E. coli (Gram-negative) were used. The laboratory strain of E. coli, K-12 (ATCC Accession No. 700926), was used for preliminary MIC determinations. The tetracycline resistant strain of E. coli (Tet^R) was prepared by transforming competent JM109 E. coli (Promega) with the pBR322 plasmid (Carolina Biologicals) using the manufacturers protocol. This plasmid contains two resistance genes: the tetA gene expresses the tetracycline resistance TetA efflux pump (Sapunaric and Levy, Microbiol. 2005, 151, 2315-2322) and the amp^R gene expresses a β-lactamase enzyme (Bolivar, et al; Gene 1977, 2, 95-113) that cleaves the four membered ring of penicillin derivatives. The resulting E. coli, which we designate Tet^R E. coli, is both tetracycline and ampicillin resistant. The TetA efflux pump belongs to the major facilitator superfamily (MFS), spans the cytoplasmic membrane, and transports tetracycline from the cell cytoplasm to the periplasmic space (Thanassi, et al., J. Bacteriol. 1995, 177, 998-1007). This active efflux utilizes the proton gradient as an energy source (Levy, Antimicrob. Agents Chemother. 1992, 36, 695-703). […]
Similar experiments to those described in Example 7 above were conducted, wherein the antimicrobial activity of various compounds was determined against Staphylcoccus aureus 1199B. […]

[2] = Aggregate detection by dynamic light scattering; type: physicochemical; settings: 10.(HCl)2 at concentrations between 10 μM and 1 mM
Description: Amphiphiles are known to enhance the permeability of bacterial boundary layers (Lambert and Hammond, Biochem. Biophys. Res. Commun. 1973, 54, 796-799; and Hancock, Lancet 1997, 349, 418-422). Amphiphiles are also known to form aggregates in aqueous solution. An effort to detect aggregates of 10 was made by using dynamic light scattering (DLS). Compound 10 was deemed to be the most amphiphilic (bola-amphiphilic) of the structures owing to the estimated maximal spacing of the amino groups (Fuhrhop, et al., J. Am. Chem. Soc. 1993, 115, 1600-1601). Solutions of 10.(HCl)2 at concentrations between 10 μM and 1 mM were prepared and examined by dynamic light scattering methods. At the highest concentration, it appeared that some aggregates formed, but the counts were low and the results were considered inconclusive.

Compound	cellular vitality (FDA fluorescence) (HEK-293 cells; 20 μM)	cellular vitality (FDA fluorescence) (HEK-293 cells; 80 μM)	activity recovered (fold) [1]	aggregate formation in aqueous solution (DLS) [2]
Cl.Cl.N[C@@H](Cc1c[nH]c2ccccc12)C(=O)Nc1cccc(NC(=O)[C@@H](N)Cc2c[nH]c3ccccc23)c1 [Compound 2, (2S,2′S)-1,1′-(1,3-Phenylenebis(azanediyl))bis(3-(1H-indol-3-yl)-1-oxopropan-2-aminium) chloride]	no loss of vitality	some toxic effect was apparent		
Cl.Cl.N[C@H](Cc1c[nH]c2ccccc12)C(=O)NCCCCCCCCCCCCNC(=O)[C@@H](N)Cc1c[nH]c2ccccc12 [Compound 10, (S)-1-((12-((R)-2-Ammonio-3-(1H-indol-3-yl)propanamido)dodecyl)amino)-3-(1H-indol-3-yl)-1-oxopropan-2-aminium chloride]			128 fold	inconclusive
